Primed or numbered codes have the meaning given here. [ ]: non-standard residue; d: D form. Cha = N[C@@H](CC1CCCCC1)C(=O)O; IRDye800CW′ = not defined here; AEEA = NCCOCCOCC(=O)O
Key:
[1] = tested on: orthotopic GBM (U-87 MG-luc2 xenograft); experiment: NIR fluorescence imaging of orthotopic GBM (dynamic imaging, TBR and MFI); format: in vivo, mice
Procedure: All experimental procedures in animals were carried out in accordance with the approval by The Animal Experiments Inspectorate, Denmark. 7-10-week-old female nude mice (strain: Rj:NMRI-Foxn1nu/nu, JANVIER LABS, France) were orthotopically xenografted with U-87 MG-luc2 cells. Prior to any surgical procedure, the animals were anesthetized with Hypnorm (0.315 mg/ml fentanyl, 10 mg/ml fluanisone)+Midazolam (5 mg/ml)+sterile water in the ratio 1:1:2 by subcutaneous injection of 0.01 ml/g body weight of the solution.
The orthotopic GBM tumor model was established by inoculation of 500.000 cells in 10 μL ice cold PBS in the right hemisphere (1.5 mm lateral and 0.5 mm posterior to the bregma at 2 mm depth) using a stereotaxic frame (KOPF INSTRUMENTS, Tujunga, Calif., USA) with the automated microinjection pump UMP3 (WPI, Sarasota, Fla., USA). The cells were injected over 5 min with the syringe kept in place for further 3 min before retraction. Tumor growth was subsequently monitored on MRI with the BioSpec 7T (Bruker, Billerica, Mass., USA) with axial and coronal T2-weighted sequences. When the tumor size reached 2-17 mm^3, the animals were included in the fluorescence imaging protocol.
All image acquisition was performed with the Fluobeam system with (Fluosoft version: 2.2.1) (Fluoptics, Grenoble, France). To characterize the in vivo biodistribution and tumor imaging properties, IRDye800-AE344 was administered through tail vein injection into all the GBM bearing mice (n=35) at four different doses: 1 nmol, 3 nmol, 6 nmol, and 12 nmol. Two mice were sacrificed for each time point and the brain was removed and cross sectioned through the tumor for imaging. […] Accordingly, image acquisition was performed at following time points after injection:
1 nmol: 0.5 h, 1 h, and 2 h
3 nmol: 1 h, 2 h, 3 h, and 5 h
6 nmol: 1 h, 3 h, 6 h, and 12 h
(§1) Images were analyzed and processed in ImageJ 1.52a, NIH, USA. Signal measurements were performed on the raw images generated by the Fluoptics system. Tumor signal was measured as a mean fluorescence intensity of the whole tumor and background signal was measured as the mean of a representative area with no tumor on the contralateral hemisphere. Presented pictures are contrast enhanced in ImageJ with the Contrast Enhancement (Saturated pixels: 0.3%).
Pathological assessment was used to evaluate the colocalization of the fluorescence signal and cancer cells (sens+spec). The cross sectioned brain specimens from the fluorescence imaging were either paraffin embedded for H&E and IHC staining, or cryostat sectioned for fluorescence microscopy. […]
Cryostat sectioning was performed by fixation of the specimen in Tissue-Tek O.C.T. on dry ice. The fixed tissue was sliced axially and mounted on slides for immediate fluorescence imaging.

[2] = Photostability under continuous laser exposure; format: physicochemical
Procedure: The photostability was evaluated by a factor 2 dilution series with four samples from 0.23-1.8 nM IRDye800-AE344 in 100 μL phosphate buffered saline (PBS) placed in a black 96-well plate. The well was placed in a black box with the Fluobeam mounted in the top at a distance of 23 cm from the well plate. Image acquisition was performed at 0 min, 10 min, 15 min, 20 min, 0.5 h, 1 h, 2 h, 3 h, 6 h, 10 h, 15 h, 24 h. Each dilution sample was normalized to time point 0 and the data from all four samples were pooled.

[3] = Acute toxicity, liver and kidney histology; set-up: species or system mice; details: mouse, in vivo
Source text: Liver and kidneys: Tissue was formalin fixed and paraffin embedded. Sections of 2-4 um thick were cut and a routine staining panel applied including: H&E, modified sirius, PAS and Masson trichome for both and additional PAS with silver for kidneys and PAS with diastase, iron, reticulin artisan and oxidised orcein for the livers. Livers were immunohistochemically stained, immunohistochemical evaluation on 3 μm thick sections was done using the CK7 antibody from Dako/Agilent, GA619 (clone OV-TL12/30) following the manufacturer's instructions. The staining took place on the Omnis from Agilent utilizing the EnVision Flex+ detection kit (GV800). The primary antibody was diluted using Antibody Diluent (Dako DM830) and were incubated for 20 minutes. The sections were counterstained with hematoxylin.

orthotopic GBM = experiment: Fluorescence-guided resection; format: in vivo, mouse; details: 6 nmol at 3 h, EleVision IR system
Procedure: Preoperatively, the tumor was visible on WL and NIR images (FIG. 15 upper panel). The surgeon performed the resection only assisted by WL until the surgeon considered all tumor tissues was removed. […] A video of fluorescence-guided surgery is also available in the online supplementary materials.
As should be understood from above, in FIG. 15 there is shown fluorescence-guided surgery (6 nmol IRDye800CW-AE344 at 3 h) performed with the EleVision™ IR system. Upper panel: Images were acquired prior to surgery. Middle panel: Pictures were acquired following surgery in white light and clearly visualizes remaining tumor tissue. The signal is more intense compared to upper panel and is due to the fact that the remaining tumor is now more exposed.

uPAR [4] = target: T1, uPAR (Homo sapiens, UniProt Q03405); experiment: In vivo binding specificity (competitive blocking, scrambled probe); set-up: endogenous in cells; species or system mice; details: 3 nmol, 1 h; for signal intensity compared to the active probe: orthotopic GBM
Procedure: The target specificity to uPAR was evaluated by two different methods: competitive blocking with the uPAR targeting peptide AE120 ((DChaFsrYLWSG)2-βAK) and IRDye800 conjugated to a scrambled peptide, AE354 (IRDye800CW-Glu-Glu-NH—CH2—CH2—O—CH2—CH2—O—CH2—CO—NH—CH2—CH2—O—CH2—CH2—O—CH2—CO-Asp-Cha-Glu-(D)Ser-(D)Arg-Tyr-Leu-Glu-Ser-OH) with similar peptide length as the active peptide. The competitive blocking dose of 1.4-2.8 mg AE120 was injected intraperitoneally 15-30 min prior to intravenous injection of 3 nmol IRDye800CW-AE344 and imaged at 1 h (n=5). The scrambled peptide was administered at 3 nmol and the animals were imaged after 1 h (n=4).
as §1
Target sequence in this assay (Q03405 23-305): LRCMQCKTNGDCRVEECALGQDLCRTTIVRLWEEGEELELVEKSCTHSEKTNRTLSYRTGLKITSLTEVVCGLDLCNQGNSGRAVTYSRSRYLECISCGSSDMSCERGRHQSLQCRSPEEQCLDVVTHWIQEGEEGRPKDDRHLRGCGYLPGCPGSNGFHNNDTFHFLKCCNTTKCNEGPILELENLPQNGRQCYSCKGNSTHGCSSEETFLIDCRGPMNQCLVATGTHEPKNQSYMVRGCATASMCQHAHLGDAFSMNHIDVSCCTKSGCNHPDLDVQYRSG

uPAR [5] = target: T1, uPAR; experiment: SPR inhibition of uPAR wt binding to immobilized pro-uPA; details: inhibition of uPAR binding to immobilized pro-uPA S356A, 20° C.
Procedure: Covalent immobilization of purified human prouPA^S356A—was accomplished by injecting 12.5 μg/ml protein dissolved in 10 mM sodium acetate (pH 5.0) over a CM5 chip that had been pre-activated with NHS/EDC (N-ethyl-N′[3-[…])propyl]-carbodiimide), aiming at a surface density of >5000 resonance units (RU) corresponding to 100 fmols/mm^2. After coupling the sensorchip was deactivated with 1 M ethanolamine. Binding of purified human uPAR as analyte was measured from 4 nM to 0.25 nM at 20° C. using 10 mM HEPES, 150 mM NaCl, 3 mM EDTA (pH 7.4) containing 0.05% (v/v) surfactant P20 as running buffer at a flow rate of 50 μl/min. […]
Surface plasmon resonance (SPR) was applied to determine the IC50-value of IRDye800-AE344 on the uPAR·uPA interaction in solution using a Biacore 3000 instrument essentially as described. […] A standard curve was measured in parallel (2-fold dilution of uPAR covering 0.06 nM to 2 nM) including one repeated concentration point at the end to validate the biological integrity of the sensor chip. […] The parent nonamer peptide antagonist AE105 (Asp-Cha-Phe-D-Ser-D-Arg-Tyr-Leu-Trp-Ser-OH) was analyzed in parallel as positive control and the closed uPAR^H47C-N259C was used as negative control as its uPA binding cavity cannot accommodate AE105.
Target sequence in this assay (Q03405 23-305 limits assumed): as the sequence (Q03405 23-305) above

Molecule: CC(C)C[C@H](NC(=O)[C@H](Cc1ccc(O)cc1)NC(=O)[C@@H](CCCNC(=N)N)NC(=O)[C@@H](CO)NC(=O)[C@H](Cc1ccccc1)NC(=O)[C@H](CC1CCCCC1)NC(=O)[C@H](CC(=O)O)NC(=O)COCCOCCNC(=O)COCCOCCNC(=O)[C@H](CCC(=O)O)NC(=O)[C@H](CCC(=O)O)NC(=O)CCCCC[N+]1=C(/C=C/C2=C(Oc3ccc(S(=O)(=O)O)cc3)C(=C/C=C3/N(CCCCS(=O)(=O)[O-])c4ccc(S(=O)(=O)O)cc4C3(C)C)/CCC2)C(C)(C)c2cc(S(=O)(=O)O)ccc21)C(=O)N[C@@H](Cc1c[nH]c2ccccc12)C(=O)N[C@@H](CO)C(=O)O [IRDye800CW-AE344, IRDye800CW-Glu-Glu-O2Oc-O2Oc-Asp-Cha-Phe-D-Ser-D-Arg-Tyr-Leu-Trp-Ser-OH]
- background MFI ([1]; 6 nmol, 1 h): 24 a.u.
- background MFI ([1]; 6 nmol, 3 h): 11 a.u.
- decrease in background MFI ([1]; 6 nmol, from 1 h to 3 h): 54%
- visualization of orthotopic GBM through intact brain on NIR imaging ([1]; in vivo cancer imaging): clearly visualized
- preserved fluorescence intensity ([2]; after continuous laser exposure for 1 h): 84%
- preserved fluorescence intensity ([2]; after continuous laser exposure for 2 h): 62%
- pathological assessment of the kidneys and the liver [3]: no pathological findings
- outcome of fluorescence-guided surgery (orthotopic GBM): complete tumor resection
- normalized TBR (ref: active probe) (uPAR [4]; blocked with AE120): 0.70
- tumor-to-background ratio (TBR) (uPAR [4]; blocked with AE120): 4.6
- normalized TBR (ref: active probe) (uPAR [4]; probe alone): 1.00
- tumor-to-background ratio (TBR) (uPAR [4]; probe alone): 6.6
- signal intensity compared to the active probe (uPAR [4]; competitive blocking with AE120): lower signal intensity

Molecule: EE-O2Oc-O2Oc-DChaFsrYLWS-NH2 [AE347]
- IC50 (uPAR [5]): 5.7 ± 0.5 nM

Molecule: IRDye800CW-Glu-Glu-NH—CH2—CH2—O—CH2—CH2—O—CH2—CO—NH—CH2—CH2—O—CH2—CH2—O—CH2—CO-Asp-Cha-Glu-(D)Ser-(D)Arg-Tyr-Leu-Glu-Ser-OH ({IRDye800CW′}-EE[AEEA][AEEA]D[Cha]E[dS][dR]YLES-OH) [IRDye800CW-AE354, reference compound]
- normalized TBR values (FIG. 16C) (uPAR [4]; probe alone): 3.4
- signal intensity compared to the active probe (uPAR [4]; probe alone): lower signal intensity

Source: US20220401585A1, “A UROKINASE PLASMINOGEN ACTIVATOR RECEPTOR-TARGETING PEPTIDE” (RIGSHOSPITALET, priority 2019, published 2022)
